Results taken from US6706880B2 (Research Triangle Institute, priority 1990, dated 2004).
Where two headings read alike, the source gives them in different places.

Columns and labels:
[1] = target: norepinephrine transporter (UniProt Q9WTR4); assay: Inhibition of [3H]nisoxetine radioligand binding at the norepinephrine transporter
Source text: (§1) Illustrative in vitro assays for binding are described in Boja et al Ann. NY Acad. Sci. 654:282-291 (1992), which is incorporated herein by reference in its entirety. […] Alternatively, the compounds may be analyzed by their ability to inhibit reuptake of a labelled neurotransmitter in a sample, in particular, in synaptosomes.

serotonin transporter = target: T1, serotonin transporter (Rattus norvegicus, UniProt P31652); assay: Inhibition of [3H]paroxetine radioligand binding at the serotonin transporter
T1 construct: from tissue
Source text: as §1

dopamine transporter = dopamine transporter (UniProt P23977); format: binding
Source text: as §1

[2] = read-out: NEN IC50 for inhibition of radioligand binding, NEN=[3H] nisoxetine
[3] = 5-HT IC50 for inhibition of radioligand binding, 5-HT=[3H] paroxetine
[4] = read-out: DA IC50 for inhibition of radioligand binding, DA=[3H]WIN 35,428
[5] = read-out: IC50 NE [3H]-nisoxetine, Table IV
[6] = IC50 5-HT [3H]-paroxetine, Table IV
[7] = read-out: IC50 DA [3H]-WIN 35,428, Table IV
[8] = 5-HT=[3H] paroxetine, read-out: 5-HT IC50 for inhibition of radioligand binding

T1 sequence (P31652 whole entry): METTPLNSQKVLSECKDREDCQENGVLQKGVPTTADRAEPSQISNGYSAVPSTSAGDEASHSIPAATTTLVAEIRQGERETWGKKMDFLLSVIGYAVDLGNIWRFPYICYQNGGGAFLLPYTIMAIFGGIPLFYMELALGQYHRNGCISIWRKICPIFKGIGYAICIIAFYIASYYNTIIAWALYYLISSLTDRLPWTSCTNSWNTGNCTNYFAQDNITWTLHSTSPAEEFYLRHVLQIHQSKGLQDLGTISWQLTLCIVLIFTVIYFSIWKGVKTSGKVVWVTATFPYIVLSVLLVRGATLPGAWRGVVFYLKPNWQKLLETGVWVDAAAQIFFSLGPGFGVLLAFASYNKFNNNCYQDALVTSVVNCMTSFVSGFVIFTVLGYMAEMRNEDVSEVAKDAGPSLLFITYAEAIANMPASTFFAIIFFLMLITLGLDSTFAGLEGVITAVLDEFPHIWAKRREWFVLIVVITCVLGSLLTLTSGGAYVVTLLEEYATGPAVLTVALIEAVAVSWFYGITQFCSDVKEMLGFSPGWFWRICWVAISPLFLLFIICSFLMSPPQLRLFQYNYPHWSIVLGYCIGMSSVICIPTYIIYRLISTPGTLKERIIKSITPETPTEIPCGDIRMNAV

## COC(=O)[C@@H]1C2CCC(C[C@@H]1c1ccc(I)cc1)N2 (stereo partly drawn) [RTI-4229-98]
[1]; [2]
  IC50: 0.011 µM
Serotonin transporter; [3]
  IC50: 0.00036 µM
Dopamine transporter; [4]
  IC50: 0.00069 µM

## CC(=O)OC[C@@H]1C2CCC(C[C@@H]1c1ccc(Cl)cc1)N2C (stereo partly drawn) [RTI-4229-105]
[1]; [5]
  IC50: 0.127 ± 0.0059 µM
[1]; [2]
  IC50: 0.127 µM
Serotonin transporter; [3]
  IC50: 0.143 µM
Serotonin transporter; [6]
  IC50: 0.143 ± 0.025 µM
Dopamine transporter; [4]
  IC50: 0.0016 µM
Dopamine transporter; [7]
  IC50: 0.0018 ± 5e-05 µM

## CN1C2CCC1[C@@H](CCl)[C@@H](c1ccc(Cl)cc1)C2 (stereo partly drawn) [RTI-4229-108]
[1]; [5]
  IC50: 0.129 ± 0.015 µM
[1]; [2]
  IC50: 0.129 µM
Serotonin transporter; [3]
  IC50: 0.098 µM
Serotonin transporter; [6]
  IC50: 0.098 ± 0.0087 µM
Dopamine transporter; [4]
  IC50: 0.00264 µM
Dopamine transporter; [7]
  IC50: 0.00264 ± 0.00031 µM

## COC(=O)C1C2CCC(CC1c1ccc(Cl)cc1)N2 (stereo not drawn) [RTI-4229-110]
[1]; [2]
  IC50: 0.00545 µM
Serotonin transporter; [8]
  IC50: 0.00413 µM
Dopamine transporter; [4]
  IC50: 0.00062 µM

## COC(=O)[C@@H]1C2CCC(C[C@@H]1c1ccc(Cl)c(Cl)c1)N2C (stereo partly drawn) [RTI-4229-111]
[1]; [2]
  IC50: 0.018 µM
Serotonin transporter; [3]
  IC50: 0.00313 µM
Dopamine transporter; [4]
  IC50: 0.00079 µM

## COC(=O)[C@@H]1C2CCC(C[C@@H]1c1ccc(Cl)c(C)c1)N2C (stereo partly drawn) [RTI-4229-112]
[1]; [2]
  IC50: 0.0362 µM
Serotonin transporter; [3]
  IC50: 0.0105 µM
Dopamine transporter; [4]
  IC50: 0.00082 µM

## CN1C2CCC1C(C(=O)Oc1ccccc1)C(c1ccc(Cl)cc1)C2 (stereo not drawn) [RTI-4229-113]
[1]; [2]
  IC50: 2.96 µM
Serotonin transporter; [8]
  IC50: 2.33 µM
Dopamine transporter; [4]
  IC50: 0.00198 µM

## CC(C)OC(=O)C1C(c2ccc(Cl)cc2)CC2CCC1N2C (stereo not drawn) [RTI-4229-114]
[1]; [2]
  IC50: 0.778 µM
Serotonin transporter; [8]
  IC50: 1.4 µM
Dopamine transporter; [4]
  IC50: 0.0014 µM

## CN1C2CCC1C(COc1ccc(I)cc1)C(c1ccc(Cl)cc1)C2 (stereo not drawn) [RTI-4229-116]
[1]; [2]
  IC50: 0.968 µM
Serotonin transporter; [3]
  IC50: 1.23 µM
Dopamine transporter; [4]
  IC50: 0.033 µM

## Cc1ccc(C2CC3CCC(C2C(=O)OC(C)C)N3C)cc1 (stereo not drawn) [RTI-4229-117]
[1]; [2]
  IC50: 1.93 µM
Serotonin transporter; [8]
  IC50: 6.09 µM
Dopamine transporter; [4]
  IC50: 0.00645 µM

## Cc1noc([C@@H]2C3CCC(C[C@H]2c2ccccc2)N3C)n1 (stereo partly drawn) [RTI-4229-119]
[1]; [2]
  IC50: 6.99 µM
Serotonin transporter; [3]
  IC50: 40.6 µM
Dopamine transporter; [4]
  IC50: 0.167 µM

## Cc1ccc(C2CC3CCC(C2C(=O)Oc2ccccc2)N3C)cc1 (stereo not drawn) [RTI-4229-120]
[1]; [2]
  IC50: 5.83 µM
Serotonin transporter; [8]
  IC50: 24.5 µM
Dopamine transporter; [4]
  IC50: 0.00326 µM

## CC(C)OC(=O)C1C(c2ccc(I)cc2)CC2CCC1N2C (stereo not drawn) [RTI-4229-121]
[1]; [2]
  IC50: 0.285 µM
Serotonin transporter; [3]
  IC50: 0.0558 µM
Dopamine transporter; [4]
  IC50: 0.00043 µM

## CN1C2CCC1C(C(=O)Oc1ccccc1)C(c1ccc(Cl)cc1)C2 (stereo not drawn) [RTI-4229-122]
[1]; [2]
  IC50: 3.79 µM
Serotonin transporter; [3]
  IC50: 0.184 µM
Dopamine transporter; [4]
  IC50: 0.0015 µM

## CN1C2CCC1C(COC(=O)c1ccccc1)C(c1ccc(Cl)cc1)C2 (stereo not drawn) [RTI-4229-123]
[1]; [5]
  IC50: 0.393 ± 0.03 µM
[1]; [2]
  IC50: 0.393 µM
Serotonin transporter; [3]
  IC50: 0.00353 µM
Serotonin transporter; [6]
  IC50: 0.00353 ± 0.00058 µM
Dopamine transporter; [4]
  IC50: 0.00178 µM
Dopamine transporter; [7]
  IC50: 0.00178 ± 9e-05 µM

## Cc1noc([C@@H]2C(c3ccccc3)CC3CCC2N3C)n1 (stereo partly drawn) [RTI-4229-124]
[1]; [2]
  IC50: 71 µM
Serotonin transporter; [3]
  IC50: 33.1 µM
Dopamine transporter; [4]
  IC50: 1.03 µM

## Cc1noc(C2C(c3ccccc3)CC3CCC2N3C)n1 (stereo not drawn) [RTI-4229-126]
[1]; [2]
  IC50: 7.88 µM
Serotonin transporter; [3]
  IC50: 3.82 µM
Dopamine transporter; [4]
  IC50: 0.1 µM

## CCC(CC)OC(=O)C1C(c2ccc(C)cc2)CC2CCC1N2C (stereo not drawn) [RTI-4229-127]
[1]; [2]
  IC50: 3.44 µM
Serotonin transporter; [8]
  IC50: 4.5 µM
Dopamine transporter; [4]
  IC50: 0.019 µM

## CN1C2CCC1C(c1nc(-c3ccccc3)no1)C(c1ccc(Cl)cc1)C2 (stereo not drawn) [RTI-4229-130]
[1]; [2]
  IC50: 0.245 µM
Serotonin transporter; [8]
  IC50: 0.195 µM
Dopamine transporter; [4]
  IC50: 0.00162 µM

## Cc1ccc(C2CC3CCC(C2CN(C)C)N3C)cc1 (stereo not drawn) [RTI-4229-132]
[1]; [5]
  IC50: 0.137 ± 0.011 µM
[1]; [2]
  IC50: 0.137 µM
Serotonin transporter; [3]
  IC50: 0.208 µM
Serotonin transporter; [6]
  IC50: 0.208 ± 0.018 µM
Dopamine transporter; [4]
  IC50: 0.00348 µM
Dopamine transporter; [7]
  IC50: 0.00348 ± 0.00011 µM

## CC1C(c2ccc(Cl)cc2)CC2CCC1N2C (stereo not drawn) [RTI-4229-139]
[1]; [5]
  IC50: 0.057 ± 0.0026 µM
[1]; [2]
  IC50: 0.0569 µM
Serotonin transporter; [3]
  IC50: 0.085 µM
Serotonin transporter; [6]
  IC50: 0.085 ± 0.0093 µM
Dopamine transporter; [4]
  IC50: 0.00167 µM
Dopamine transporter; [7]
  IC50: 0.00187 ± 0.00013 µM

## COc1ccc(-c2noc(C3C(c4ccc(Cl)cc4)CC4CCC3N4C)n2)cc1 (stereo not drawn) [RTI-4229-141]
[1]; [2]
  IC50: 0.835 µM
Serotonin transporter; [3]
  IC50: 0.337 µM
Dopamine transporter; [4]
  IC50: 0.00181 µM

## COC(=O)C1C2CCC(CC1c1ccc(F)cc1)N2 (stereo not drawn) [RTI-4229-142]
[1]; [2]
  IC50: 0.0188 µM
Serotonin transporter; [8]
  IC50: 0.0686 µM
Dopamine transporter; [4]
  IC50: 0.00439 µM

## CN1C2CCC1C(c1nc(-c3ccc(Cl)cc3)no1)C(c1ccc(Cl)cc1)C2 (stereo not drawn) [RTI-4229-143]
[1]; [2]
  IC50: 4.07 µM
Serotonin transporter; [3]
  IC50: 0.404 µM
Dopamine transporter; [4]
  IC50: 0.0041 µM

## CN1C2CCC1C(c1nc(-c3ccc(Br)cc3)no1)C(c1ccc(Cl)cc1)C2 (stereo not drawn) [RTI-4229-144]
[1]; [2]
  IC50: 1.82 µM
Serotonin transporter; [3]
  IC50: 0.106 µM
Dopamine transporter; [4]
  IC50: 0.00344 µM

## COC(=O)OCC1C(c2ccc(Cl)cc2)CC2CCC1N2C (stereo not drawn) [RTI-4229-145]
[1]; [5]
  IC50: 1.48 ± 0.096 µM
[1]; [2]
  IC50: 1.48 µM
Serotonin transporter; [3]
  IC50: 2.93 µM
Serotonin transporter; [6]
  IC50: 2.93 ± 0.181 µM
Dopamine transporter; [4]
  IC50: 0.0096 µM
Dopamine transporter; [7]
  IC50: 0.0096 ± 0.00042 µM

## CN1C2CCC1C(C(=O)NCO)C(c1ccc(Cl)cc1)C2 (stereo not drawn) [RTI-4229-146]
[1]; [2]
  IC50: 0.144 µM
Serotonin transporter; [8]
  IC50: 0.098 µM
Dopamine transporter; [4]
  IC50: 0.00205 µM
